Assay results published in patent publication US20260207551A1, “PHOSPHOGLICERATE DEHYDROGENASE INHIBITORS FOR THE TREATMENT OF FIBROSIS” (CHIESI FARMACEUTICI S.P.A., priority 2022, published 2026).
Where two headings read alike, the source gives them in different places.

Legend:
[1] = Plasma exposure after the last dose in bleomycin model (Example 5); type: in vivo, Male C57BL6/J mice; settings: 0.5 h, 2 h and 7 h
Protocol: The Bioanalysis of Compound 19 in plasma was carried out under the same experimental conditions as reported in Example 3.
Plasma exposure of Compound 19 was determined following the last oral dose at three timepoints (0.5 h, 2 h and 7 h).

[2] = Plasma and tissue exposure in PK/PD model; type: in vivo, mouse male (C57BL/6J); settings: male, C57BL/6J, mouse, 300 mg/kg, 1 h, 6.5 h and 24.5 h
Protocol: Animals were fasted overnight before treatment. Following 0.5 h from administration of either Compound 19 at dose of 300 mg/kg or vehicle (0.5% Tween 80, 0.5% Methylcellulose in H2O), ^13C6-glucose was administered by oral gavage (2 g/kg, Merck Life Science Srl). Blood, lung, and brain samples were collected at 1 h, 6.5 h and 24.5 h after treatment with Compound 19 or vehicle.
The tissue concentration of ^13C3-serine was determined by a liquid chromatography-tandem mass spectrometry (LC/MS/MS) assay. GraphPad Prism (version 8.1.2) was used for drawing graphs and for statistical analysis. Plasma or tissue homogenate samples (tissues were homogenized with a water/acetonitrile 50/50 mixture) were extracted with 3 volumes of acetonitrile. Supernanatant was injected into HPLC system (Agilent 1260 Quaternary Pump equipped with an Agilent 1200 High Performance Autosampler SL; Agilent), using a Kinetex EVO C18 analytical column (100 A, 50×2.1 mm, 2.6 μm; Phenomenex) for the analysis of Compound 19 or an InfinityLab Poroshell 120 Hilic-Z (50×2.1 mm 2.7 μm; Agilent) for the analysis of ^13C3-serine. […]
Mass spectrometric analysis was performed on a linear ion trap triple quadrupole mass spectrometer (4000 Q TRAP; AB SCIEX) equipped with a turbo spray ion source; mass spectrometer was operated in positive ion mode and quantification was achieved by multiple reaction monitoring (MRM) mode. […]

[3] = system: alpha smooth muscle actin (α-SMA); experiment: TGF-b induced α-SMA expression in NHLFs (Western blot); type: cell-based, Human; settings: NHLF, TGF-β (10 ng/ml) 48 h
Text: The antifibrotic activity of compounds of the present invention has been monitored measuring the expression of fibrotic mediators, collagen I (Col-I) and alpha smooth muscle actin (α-SMA) after treatment in lung cells with TGF-β in comparison with Nintedanib (see Frank Hilberg et al, Cancer Res 2008 Jun. 15; 68(12):4774-82), and allosteric inhibitor NCT-503 (see Hamanaka et al., Am J Respir Cell Mol Biol. 2018 May; 58(5):585-593).
(§1) Human normal lung fibroblasts (NHLFs) were purchased from Lonza (Basel, Switzerland). NHFLs were cultured in Eagle's Minimum Essential medium (EMEM) w/o serine and glycine, supplemented with 10% Fetal Bovine Serum (FBS), antibiotics (50 U/ml penicillin and 0.05 mg/ml streptomycin) and 2 mM L-glutamine, in an atmosphere of 95% air and 5% CO2 at 37° C. NHLFs cultures were used between passage 1 and 9. Before all the experiments, cells were incubated overnight in serum-free medium.
NHLFs were seeded in 12-well plates at cultured until 70% of confluency. To examine the expression of fibrotic markers, cells were treated with different concentrations of Compounds and NCT-503 in EMEM medium for 1 h followed by stimulation with TGF-β for 48 h at 37° C., 5% CO2. Following cell treatments, medium was removed and whole cell extracts were prepared by directly adding to the well the 1× loading buffer (125 mM Tris-HCl pH 6.8, 4% SDS, 0.2% Orange G, 50% glycerol, 2.5% β-mercaptoethanol, Li-cor Biosciences), boiled for 5 min and then electrophoresed on Mini protean TGX gel 4-12% (Biorad). After electrophoresis, proteins were transferred to a nitrocellulose membrane. Immunodetection of Col-I, α-SMA and glyceraldeide 3-phosphate dehydrogenase (GAPDH) were obtained by using mouse anti-CollA1 (Santacruz), mouse anti-α-SMA (sigma) and rabbit anti-GAPDH (Cell Signaling Technology) all diluted at 1:1000 in TBS-tween 0.1%. […] Detection and quantification were performed with Odyssey imaging system (Li-cor) using GAPDH as loading control.

[4] = system: bleomycin-induced pulmonary fibrosis; experiment: Bleomycin-induced pulmonary fibrosis in male mice (Example 5)
Protocol: Male C57BL6/J mice (7-8 weeks old) were purchased from the Envigo RMS (San Pietro al Natisone (UD), Italy). All mice were maintained under pathogen-free conditions and were provided food and water ad libitum.
Lung injury was induced by double oropharyngeal instillation of Bleomycin hydrochloride (BLM, BAXTER) at day 0 and day 4 at the doses of 0.02 U/mouse in 50 μl of saline solution (0.9%). Control animals received double oropharyngeal instillation of 50 μl of saline solution.
Compound 19 was orally administered twice daily, starting on day 7 after the first oropharyngeal administration of bleomycin at the two doses of 400 and 600 mg/kg/day, 10 ml/kg, dissolved in 0.5% Tween 80, 0.5% Methylcellulose in H2O and treatment lasted for two weeks.
A group of animals was treated with Nintedanib esylate salt, at the dose of 60 mg/kg/day, 10 ml/kg, once daily, to compare the efficacy of the test compounds with an FDA approved drug for the treatment of IPF patients. Control mice were given vehicle-only over the same time intervals. Weight of all animals has been assessed twice a week starting from day 0 until day 21.
On days 21, mice were anesthetized by intraperitoneal injection of thiopental (200 mg/kg/10 ml; pentothal sodium, MSD Animal Health Srl). Blood was withdrawn by cardiac puncture and collected in heparine tubes. Plasma was obtained after centrifugation of blood at 10,000 g for 10 min. Lungs were lavage with saline solution through the heart, formalin fixed and paraffin embedded, and sections were stained with Masson's Trichrome to evaluate the grade and severity of fibrosis and collagen deposition.
Masson's Trichrome stained slides were also scanned with NanoZoomer S60 (Hamamatsu Photonics K.K., Shizuoka, Japan) and acquired into the Visiopharm Integrator System (VIS; version 2017.2.4.3387) for a quantification of pulmonary fibrosis by automated analysis with the support of a VIS Analysis Protocol Package (APP). The present APP has been designed to identify and then quantify the fibrotic tissue, detecting accumulation of altered connective tissue, excess of collagen deposition and cellular density.
To quantify lung protein content and the levels of specific proteins as markers of fibrosis and collagen deposition, lungs from subgroups of animals were weighted, homogenized in Phosphate buffer solution (PBS) and proteins of interest were quantified by immunometric or colorimetric assays. Hydroxyproline content was determined using the Hydroxyproline Colorimetric Assay Kit (Sigma MAK008, USA) according to the manufacturer's protocol. WISP-1, CollagenI, pro-CollagenI and Elastin were determined by Elisa kits. Protein quantification was performed using DC Protein Assay (Bio-Rad Laboratories, Italy). Plasma serine levels were measured using the DL-Serine Assay Kit (Abcam, Cambridge, MA).

[5] = system: NHLFs; experiment: FBS induced proliferation of NHLFs (BrdU incorporation); type: cell-based, Human
Protocol: as §1
The antiproliferative activity of compounds of the present invention has been monitored measuring the incorporation of bromodeoxyuridine (BrdU), a thymidine analog of DNA, in newly synthesized DNA after treatment in lung cells. Briefly, NHLFs were seeded in 96-well and treated with different concentrations of Compound 19 and NCT-503 in EMEM medium for 1 h followed by stimulation with Fetal Bovine Serum (FBS) for 72 h at 37° C., 5% CO2. After cell treatments, 10 μl/well BrdU labeling solution was added for incorporation in proliferating cells for 2 h at 37° C., 5% CO2. After removing the culture medium, the cells are fixed, and the DNA is denatured by adding FixDenat followed by incubation with 100 μl/well Anti-BrdU-POD for detection. The reaction product is quantified by measuring the absorbance at the respective wavelength using a scanning multiwell spectrophotometer (ELISA reader).

CC(C)C(C(=O)O)c1ccc(C2(NC(=O)c3cc4c(Cl)c(Cl)ccc4n3C)CCOC2)cc1 (racemic) [Compound 19, (±)-2-(4-(3-(4,5-Dichloro-1-methyl-1H-indole-2-carboxamido)tetrahydro-furan-3-yl)phenyl)-3-methylbutanoic acid]
plasma exposure following the last oral dose [1]: good oral exposure | Kp ([2]; brain / plasma, read-out: mean brain/plasma ratio): 0.01 | Kp ([2]; lung / plasma, read-out: mean lung/plasma ratio): 0.4 | inhibition of release of α-SMA (comparison, FIG. 2) ([3]; Compound 19 50 uM vs NCT-503 50 uM and Nintedanib 1 uM): in a more efficacious manner than the NCT-503 (50 uM) and even more than the Nintedanib (1 uM) | inhibition at 50 µM ([3]; Homo sapiens, 50 uM, read-out: TGF-b induced a-sma (% inh. 50 uM)): 97% | circulating serine levels in plasma ([4]; 400 and 600 mg/kg/day): significant reduction at both doses | reduction of lung/body weight ([4]; Compound 19 highest dose (600 mg/kg/day), Nintedanib esylate 60 mg/kg/day, not significant): −31% | body weight during 2-weeks of treatment ([4]; compared to BLM/Vehicle treated group): did not lose additional weight | Ashcroft score (FIG. 11A) ([4]; day 21): reduced | collagen content (automatic collagen deposition quantification, FIG. 13) ([4]; day 21): reached statistical significance with the highest dose | frequency of Ashcroft score classes (FIG. 11B) ([4]; day 21): reduced the frequency of the most severe scores of fibrosis | reduction of tissue area occupied by fibrotic lesions (automated analysis) ([4]; day 21): ~25% | severity of fibrosis (automated analysis, FIG. 12) ([4]; day 21): significant reduction of severity of fibrosis | deaths during treatment ([4]; highest tested dose (600 mg/kg/day), two animals died in BLM/Vehicle group): only one animal died | lung levels of Hydroxyproline, Collagen I and WISP-1 ([4]; lung homogenates): significantly reduced | IC50 ([5]; Homo sapiens, NHLF, FBS 72 h, confidence interval in brackets, NA: not active, read-out: FBS induced proliferation (pIC50-C.I.) (converted)): 631 nM | cell proliferation induced by serum treatment (FIG. 3) ([5]; NHLFs, 72 h): able to reduce the cell proliferation
